Experimental findings from patent US20250018047A1, “METHODS AND COMPOSITIONS FOR TARGETED PROTEIN DEGRADATION” (Ranok Therapeutics (Hangzhou) Co. Ltd., priority 2021, published 2025) are described below.

The target in test [1] is T1, KRAS(G12D)/SOS1 (Homo sapiens, UniProt P01116, G12D).
T1 construct: purchased Cisbio 63ADK000CB16PEG
The experiment in a line: KRAS(G12D)/SOS1 homogeneous time-resolved fluorescence (HTRF) assay. Format: binding. The settings on record: absence of GTP, 4° C. for 3 hr. The procedure:
The test compound was mixed and incubated with reaction components, incubated in a sealed plate at 4° C. for 3 hr and fluorescence was measured using a PerkinElmer Envision plate reader.
For orientation: In TR-FRET formats the signal depends on donor and acceptor labels being close together.

For test [2], the system named is A-427 human lung carcinoma. The experiment in a line: CellTiter-Glo cancer cell line proliferation assay, A-427. The settings on record: Homo sapiens, A-427, 24 hr, read-out: A427 at 24 hrs, IC50. It counts as cell-based. As for the experimental part: (§1) Cell lines were cultured according to ATCC and recommendations.
(§2) CellTiter-Glo® Reagent Cancer Cell Line Proliferation Assays
(§3) Cells were plated in 96-well tissue culture plates at 4,000 cells/well and incubated at 37° C./5% CO2 for 24 hr in 100 μl of media. […] Cells were then treated with test compounds at various concentrations with a final concentration of 0.5% DMSO/well, and then incubated at 37° C./5% CO2 for 24 hr. 100 μl of CellTiter-Glo® Reagent (Promega Corporation, Madison, WI) was added to each well and processed according manufacturer's protocol. Results were analyzed and IC50-values were calculated in GraphPad 7 software.

The test system of test [3] is AsPC-1 human pancreatic adenocarcinoma. The experiment in a line: CellTiter-Glo cancer cell line proliferation assay, AsPC-1. Format: cell-based. The settings on record: Homo sapiens, ASPC1, 24 hr. The procedure: as §1, §2, §3

T1 sequence (P01116 1-188 isoform P01116-2 G12D): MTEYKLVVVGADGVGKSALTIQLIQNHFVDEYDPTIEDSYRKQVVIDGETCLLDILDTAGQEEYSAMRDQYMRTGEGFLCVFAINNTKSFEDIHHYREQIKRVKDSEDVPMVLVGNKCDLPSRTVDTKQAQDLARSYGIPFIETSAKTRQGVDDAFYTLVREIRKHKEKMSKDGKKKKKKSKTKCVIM

As to `C#Cc1c(F)ccc2cc(O)cc(-c3ncc4c(N5CC6CCC(C5)N6)nc(OCC5(CN6CCN(Cc7ccc8c(c7)C(=O)N(C7CCC(=O)NC7=O)C8=O)CC6)CC5)nc4c3F)c12` (centres unmarked) [Compound 64], the IC50 (as a rule, the midpoint of a concentration-inhibition curve) in test [1] was less than 100 nM; in test [2], more than 1000 nM.

`C#Cc1cccc2cccc(-c3ncc4c(N5CC6CCC(C5)N6)nc(OCC5(CN6CCN(C(=O)C7CCN(c8ccc9c(c8)CN(C8CCC(=O)NC8=O)C9=O)CC7)CC6)CC5)nc4c3F)c12` (centres unmarked) [Compound 51]: the IC50 in test [1] was less than 100 nM; in test [3] it was more than 1000 nM; in test [2], more than 1000 nM.

Regarding `C#Cc1c(F)ccc2cc(O)cc(-c3ncc4c(N5CC6CCC(C5)N6)nc(OCC5(CN(C)CC6CCN(c7ccc8c(c7)C(=O)N(C7CCC(=O)NC7=O)C8)CC6)CC5)nc4c3F)c12` (centres unmarked) [Compound 89], the IC50 in test [3] and in test [2] was more than 1000 nM in each case.

As to `C#Cc1cccc2cc(O)cc(-c3ncc4c(N5CC6CCC(C5)N6)nc(OCC5(CN6CCN(Cc7ccc8c(c7)CN(C7CCC(=O)NC7=O)C8=O)CC6)CC5)nc4c3F)c12` (centres unmarked) [Compound 61], the concentration for half-maximal inhibition (IC50) is less than 100 nM in test [1] and 100 to 1000 nM in test [2].

On to `C#Cc1cccc2cc(O)cc(-c3ncc4c(N5CC6CCC(C5)N6)nc(OC[C@H]5CC[C@@H](CN6CCN(CC7CCN(c8ccc9c(c8)C(=O)N(C8CCC(=O)NC8=O)C9=O)CC7)CC6)N5C)nc4c3F)c12` (some centres unmarked) [Compound 68], for which the IC50 is less than 100 nM in test [1] and more than 1000 nM in test [2].

Turning to `C#Cc1cccc2cccc(-c3ncc4c(N5CC6CCC(C5)N6)nc(OC[C@H]5CC[C@@H](CN6CCN(CCC7CCN(c8ccc9c(c8)C(=O)N(C8CCC(=O)NC8=O)C9=O)CC7)CC6)N5C)nc4c3F)c12` (some centres unmarked) [Compound 62], the IC50 in test [1] was less than 100 nM; in test [2], 100 to 1000 nM.

With `COc1cc(-c2ncc3c(N4CC5CCC(C4)N5)nc(OCC4(CN5CCN(CC6CCN(c7ccc8c(c7)CN(C7CCC(=O)NC7=O)C8=O)CC6)CC5)CC4)nc3c2F)c2ccccc2c1` (centres unmarked) [Compound 70], the IC50 in test [1] and in test [2] was more than 1000 nM in each case.

Compound `C#Cc1c(F)ccc2cc(O)cc(-c3ncc4c(N5CC6CCC(C5)N6C(=O)C(F)(F)F)nc(OCC5(CN6CCN(CC7CCN(c8ccc9c(c8)CN(C8CCC(=O)NC8=O)C9=O)CC7)CC6)CC5)nc4c3F)c12` (centres unmarked) [Compound 108] displayed an IC50 in test [1] of less than 100 nM.

Regarding `O=C1CCC(N2C(=O)c3ccc(N4CCN(C(=O)C5CCN(CC6(COc7nc(N8CC9CCC(C8)N9)c8cnc(-c9cc(O)cc%10ccccc9%10)c(F)c8n7)CC6)CC5)CC4)cc3C2=O)C(=O)N1` (centres unmarked) [Compound 76], the IC50 was less than 100 nM in test [1] and more than 1000 nM in test [2].

On to `C#Cc1c(F)ccc2cc(O)cc(-c3ncc4c(N5CC6CCC(C5)N6)nc(OCC5(CN6CC7(C6)CN(c6ccc8c(c6)CN(C6CCC(=O)NC6=O)C8=O)C7)CC5)nc4c3F)c12` (centres unmarked) [Compound 117], for which the IC50 in test [1] was less than 100 nM.

`C#Cc1cccc2cc(O)cc(-c3ncc4c(N5CC6CCC(C5)N6)nc(OCC5(CN6CCN(CC7CCN(CC(=O)N[C@@H](C(=O)N8C[C@@H](O)C[C@@H]8C(=O)NCc8ccc(-c9scnc9C)cc8)C(C)(C)C)CC7)CC6)CC5)nc4c3F)c12` [Compound 82]: the half-inhibitory concentration (IC50) in test [3] and in test [2] was more than 1000 nM each time.

`C#Cc1cccc2cccc(-c3ncc4c(N5CC6CCC(C5)N6)nc(OC[C@H]5C[C@@H](N6CCN(CCC7CCN(c8ccc9c(c8)C(=O)N(C8CCC(=O)NC8=O)C9=O)CC7)CC6)CN5C)nc4c3F)c12` (some centres unmarked) [Compound 74]: the values for the IC50 in test [1] and in test [2] were less than 100 nM and more than 1000 nM, respectively.

With `CN1C[C@H](C2CCC(C(=O)NCCOc3ccc4c(c3)C(=O)N(C3CCC(=O)NC3=O)C4=O)CC2)C[C@@H]1COc1nc(N2CC3CCC(C2)N3)c2cnc(-c3cc(O)cc4ccccc34)c(F)c2n1` (some centres unmarked) [Compound 53], the IC50 in test [1] is less than 100 nM; in test [2], more than 1000 nM.

Regarding `CN(CC1CCN(c2ccc3c(c2)C(=O)N(C2CCC(=O)NC2=O)C3=O)CC1)CC1(COc2nc(N3CC4CCC(C3)N4)c3cnc(-c4cc(O)cc5ccccc45)c(F)c3n2)CC1` (centres unmarked) [Compound 75], the IC50 is less than 100 nM in test [1] and more than 1000 nM in test [2].

The compound `C#Cc1c(F)ccc2cc(O)cc(-c3ncc4c(N5CCN(C(=O)C=C)[C@@H](CC#N)C5)nc(OCC5(CN6CCN(CC7CCN(c8ccc9c(c8)CN(C8CCC(=O)NC8=O)C9=O)CC7)CC6)CC5)nc4c3F)c12` (some centres unmarked) [Compound 109] gave an IC50 in test [1] of less than 100 nM.

With `C#Cc1cccc2cc(O)cc(-c3ncc4c(N5CC6CCC(C5)N6)nc(OC[C@H]5CC[C@@H](CN6CCN(CC7CCN(c8ccc9c(c8)CN(C8CCC(=O)NC8=O)C9=O)CC7)CC6)N5C)nc4c3F)c12` (some centres unmarked) [Compound 69], the IC50 in test [1] is less than 100 nM; in test [2], more than 1000 nM.

Compound `C#Cc1c(F)ccc2cc(O)cc(-c3ncc4c(N5CC6CCC(C5)N6)nc(OCC5(CN6CCC(CN7CCC(c8ccc(NC9CCC(=O)NC9=O)cc8)CC7)CC6)CC5)nc4c3F)c12` (centres unmarked) [Compound 113] yielded a half-maximal inhibitory concentration (IC50) in test [1] of less than 100 nM.

Take `C#Cc1cccc2cccc(-c3ncc4c(N5CC6CCC(C5)N6)nc(OC[C@H]5CC[C@@H](CN6CCN(CC7CCN(c8cc9c(cc8F)C(=O)N(C8CCC(=O)NC8=O)C9=O)CC7)CC6)N5C)nc4c3F)c12` (some centres unmarked) [Compound 55]: the figures for the IC50 in test [1] and in test [2] were less than 100 nM and more than 1000 nM, respectively.

With `CN1CC(N2CCC(C(=O)NCCOCCOc3ccc4c(c3)C(=O)N(C3CCC(=O)NC3=O)C4=O)CC2)C[C@@H]1COc1nc(N2CC3CCC(C2)N3)c2cnc(-c3cc(O)cc4ccccc34)c(F)c2n1` (some centres unmarked) [Compound 54], the IC50 is less than 100 nM in test [1] and more than 1000 nM in test [2].

For `C#Cc1c(F)ccc2cc(O)cc(-c3ncc4c(N5CC6CCC(C5)N6C(=O)CC#N)nc(OCC5(CN6CCN(CC7CCN(c8ccc9c(c8)CN(C8CCC(=O)NC8=O)C9=O)CC7)CC6)CC5)nc4c3F)c12` (centres unmarked) [Compound 110], in test [1], the 50% inhibitory concentration (IC50) was less than 100 nM.

Take `CN1[C@@H](COc2nc(N3CC4CCC(C3)N4)c3cnc(-c4cc(O)cc5ccccc45)c(F)c3n2)CC[C@H]1CN1CCN(CC2CCN(c3ccc4c(c3)C(=O)N(C3CCC(=O)NC3=O)C4=O)CC2)CC1` (some centres unmarked) [Compound 60]: the IC50 in test [1] is less than 100 nM; in test [2], more than 1000 nM.

In test [1], `Cc1cccc2cccc(-c3ncc4c(N5CC6CCC(C5)N6)nc(OCC5(CN6CCN(CC7CCN(c8ccc9c(c8)C(=O)N(C8CCC(=O)NC8=O)C9=O)CC7)CC6)CC5)nc4c3F)c12` (centres unmarked) [Compound 58] registered an IC50 of less than 100 nM.

Regarding `O=C1CCC(N2Cc3cc(N4CCC(CN5CCN(CC6(COc7nc(N8CC9CCC(C8)N9)c8cnc(-c9cc(O)cc%10ccccc9%10)c(F)c8n7)CC6)CC5)CC4)ccc3C2=O)C(=O)N1` (centres unmarked) [Compound 52], the IC50 was less than 100 nM in test [1] and 100 to 1000 nM in test [2].

With `C#Cc1c(F)ccc2cc(O)cc(-c3nc(OC)c4c(N5CC6CCC(C5)N6)nc(OCC5(CN6CCN(C7CCN(c8ccc9c(c8)C(=O)N(C8CCC(=O)NC8=O)C9=O)CC7)CC6)CC5)nc4c3F)c12` (centres unmarked) [Compound 115], the IC50 in test [1] was less than 100 nM.

On to `Cc1cccc(-c2ncc3c(N4CC5CCC(C4)N5)nc(OCC4(CN5CCN(CC6CCN(c7ccc8c(c7)C(=O)N(C7CCC(=O)NC7=O)C8=O)CC6)CC5)CC4)nc3c2F)c1C` (centres unmarked) [Compound 63], for which the IC50 was less than 100 nM in test [1] and more than 1000 nM in test [2].

In test [1], `C#Cc1c(F)ccc2cc(O)cc(-c3ncc4c(N5CC6CCC(C5)N6)nc(OCC5(CN6CCC7(CC6)CN(c6ccc8c(c6)CN(C6CCC(=O)NC6=O)C8=O)C7)CC5)nc4c3F)c12` (centres unmarked) [Compound 116] displayed an IC50 of less than 100 nM.

In the case of `C#Cc1cccc2cccc(-c3ncc4c(N5CC6CCC(C5)N6)nc(OCC5(CN(C)CC6CCN(c7ccc8c(c7)C(=O)N(C7CCC(=O)NC7=O)C8=O)CC6)CC5)nc4c3F)c12` (centres unmarked) [Compound 67], the IC50 was less than 100 nM in test [1] and 100 to 1000 nM in test [2].

Turning to `C#Cc1cccc2cc(O)cc(-c3ncc4c(N5CC6CCC(C5)N6)nc(OCC5(CN6CCN(CC7CCN(c8cc9c(cc8F)C(=O)N(C8CCC(=O)NC8=O)C9)CC7)CC6)CC5)nc4c3F)c12` (centres unmarked) [Compound 90], the IC50 in test [3] and in test [2] was less than 100 nM throughout.

In turn, `C#Cc1c(F)ccc2cc(O)cc(-c3ncc4c(N5CC6CCC(C5)N6)nc(OCC5(CN6CCC7(CC6)CCN(c6ccc8c(c6)CN(C6CCC(=O)NC6=O)C8=O)CC7)CC5)nc4c3F)c12` (centres unmarked) [Compound 114] displayed an IC50 in test [1] of less than 100 nM.

In test [1], `CN1C[C@H](N2CCC(C(=O)Nc3ccc4c(c3)CN(C3CCC(=O)NC3=O)C4=O)CC2)C[C@@H]1COc1nc(N2CC3CCC(C2)N3)c2cnc(-c3cccc4cccc(Cl)c34)c(F)c2n1` (some centres unmarked) [Compound 49] displayed an IC50 of 100 to 1000 nM.

For the compound `C#Cc1c(F)ccc2cc(O)cc(-c3nc(OC)c4c(N5CCN(C)[C@@H](CC#N)C5)nc(OCC5(CN6CCN(CC7CCN(c8ccc9c(c8)CN(C8CCC(=O)NC8=O)C9=O)CC7)CC6)CC5)nc4c3F)c12` (some centres unmarked) [Compound 106], the 50% inhibitory concentration (IC50) in test [1] was less than 100 nM; in test [3], more than 1000 nM.

Take `C#Cc1cccc2cc(O)cc(-c3nc(OC)c4c(N5CC6CCC(C5)N6C)nc(OCC5(CN6CCN(CC7CCN(c8ccc9c(c8)CN(C8CCC(=O)NC8=O)C9=O)CC7)CC6)CC5)nc4c3F)c12` (centres unmarked) [Compound 105]: the IC50 in test [1] is less than 100 nM; in test [3], more than 1000 nM.

For the compound `C#Cc1cccc2cc(O)cc(-c3ncc4c(N5CC6CCC(C5)N6)nc(OCC5(CN6CCN(Cc7ccc8c(c7)C(=O)N(C7CCC(=O)NC7=O)C8=O)CC6)CC5)nc4c3F)c12` (centres unmarked) [Compound 65], the IC50 in test [1] is less than 100 nM; in test [2], more than 1000 nM.

On to `C#Cc1cccc2cc(O)cc(-c3ncc4c(N5CC6CCC(C5)N6)nc(OCC5(CN6CCN(C(=O)N7CCN(c8ccc9c(c8)CN(C8CCC(=O)NC8=O)C9=O)CC7)CC6)CC5)nc4c3F)c12` (centres unmarked) [Compound 88], for which the figures for the IC50 in test [3] and in test [2] were 100 to 1000 nM and more than 1000 nM, respectively.
